Measurements as given in patent publication US4902716A (priority 1984, dated 1990).
Read-outs that look alike come from different tables or passages of the source.

Key:
VSV = assay type: cell-based, vesicular stomatitis; details: Day 5, inhibition of plaque formation
cells = experiment: Cytotoxicity (zone diameter in the antiviral assay); assay type: cell-based; details: Day 5
Protocol: The following assay method was utilized to illustrate the antiviral effectiveness of the compounds of formulae III and IV: […]
(1) Remove 75 cm^2 culture flasks from incubator (these were plated the previous week).
(3) Wash with 10 ml. PBSA or Puck's Saline.
(5) Wash a second time with 10 mL PBSA or Puck's Saline.
(7) Add 2 ml. trypsin/EDTA. Incubate until cells detach (10-20 min).
(8) Once detached, shake vigorously and immediately add 8 ml. medium and shake again.
(9) Count cells. (To 0.5 ml. cell suspension add 0.1 ml. trypan blue. Wait 5-10 minutes. Count 4 corner squares and middle square of 5×5 array in hemocytometer. Blue cells are dead. Total count per 10 ml. in culture flask=number of live cells×6×10^5).
(10) Maintain cell line by adding 3×10^6 cells to another 75 cm^2 culture flask. Bring to 30 ml. with fresh medium.
(11) For assay, add 1×10^6 cells to each well (6 wells per culture dish). Bring each well to 2 ml. with fresh medium.
(12) Incubate overnight at 37° C.
(2) Add 0.5 of medium containing 200 pfu HSV-I.
(3) Incubate 102 hr with a small amount of shaking.
(4) Add 2 ml. MC-4000 to each well.
(5) Place disks on surface and wash through (1 mg/disc, 0.5 mg/disc, 0.25 mg/disc, etc. for crude extracts).
(6) Incubate 48 hr. (making sure dishes remain level).
(1) Add 2 ml. neutral red medium.
(1) Read wells, e.g. 26 (++) where 26 indicates zone of cytotoxicity as the diameter in mm (12.5 mm to 36 mm) and (++) indicates the inhibition of plaque formation: complete inhibition (+++); a few plaques around the outside of well (++); definite inhibition (+); questionable inhibition (+/-); no inhibition (-); and no conclusion due to complete cytotoxicity.
The following antiviral inhibiting activity results were obtained utilizing the compounds of Formula III and IV at Day 5: […]

C=C1C(=O)C=CC(C)(C)[C@@]12C[C@@H](Br)[C@](C)(Cl)C[C@@H]2O [IV]
VSV activity (VSV; 100 micrograms): +
VSV activity (VSV; 200 micrograms): ++
VSV activity (VSV; 400 micrograms): ++
Cytotoxicity (cells; 100 micrograms): 0 mm
Cytotoxicity (cells; 200 micrograms): 0 mm
Cytotoxicity (cells; 400 micrograms): 12 mm
